The source of these data is ChEMBL document CHEMBL1138634, “Topological modeling of lipophilicity, diuretic activity, and carbonic inhibition activity of benzene sulfonamides: a molecular connectivity approach” (Bioorg Med Chem Lett, 2004).

The nature of data set [1]: Diuretic activity was determined. The data set is classed as ADME, Urine.
The nature of data set [2]: Inhibitory activity against carbonic anhydrase.

For the compound `Cc1ccc(S(N)(=O)=O)cc1` [P-TOLUENESULFONAMIDE], the “Log 1/C” value in data set [1] is 0.18. The “Log Ki” value in data set [2] is -5.42.

For `Cc1ccccc1S(N)(=O)=O`, the “Log 1/C” value in data set [1] is given as -0.3. For the same compound, the “Log Ki” value in data set [2] was -4.79.

For the compound `NS(=O)(=O)c1ccccc1[N+](=O)[O-]`, the “Log 1/C” value in data set [1] was -0.3. In data set [2], the “Log Ki” value is listed as -5.07.

On to `NS(=O)(=O)c1ccc(Cl)c(Cl)c1`, for which, in data set [1], the “Log 1/C” value amounted to 0.24. The “Log Ki” value in data set [2] is recorded as -6.39.

For the compound `NS(=O)(=O)c1ccc([N+](=O)[O-])c(C(F)(F)F)c1`, the “Log 1/C” value in data set [1] is 0.57. The “Log Ki” value in data set [2] was -6.85.

Turning to `CNc1ccc(S(N)(=O)=O)cc1`, in data set [1], the “Log 1/C” value is -0.03. Also, the “Log Ki” value in data set [2] is on record as -4.87.

For the compound `NS(=O)(=O)c1ccc(Cl)c([N+](=O)[O-])c1`, the “Log 1/C” value in data set [1] worked out at 0.32. The “Log Ki” value in data set [2] was -6.76.

As to `CC(=O)c1ccc(S(N)(=O)=O)cc1`, in data set [1], the “Log 1/C” value is 0.39. Moreover, the “Log Ki” value in data set [2] is reported as -5.95.

For the compound `Cc1cccc(S(N)(=O)=O)c1`, in data set [1], the “Log 1/C” value is reported as 0.17. In data set [2], the “Log Ki” value is -5.3.

Consider `NS(=O)(=O)c1cccc([N+](=O)[O-])c1`, for which the “Log 1/C” value in data set [1] was found to be 0.67. In data set [2], the “Log Ki” value is reported as -5.88.

For the compound `Nc1ccc(S(N)(=O)=O)cc1` [SULFANILAMIDE], the “Log 1/C” value in data set [1] is on record as -0.3.

For the compound `NS(=O)(=O)c1ccccc1` [BENZENESULFONAMIDE], in data set [1], the “Log 1/C” value stood at 0.13. Moreover, the “Log Ki” value in data set [2] is given as -5.21.

Regarding `NS(=O)(=O)c1cccc(Cl)c1`, the “Log 1/C” value in data set [1] turned out to be 0.29. For the same compound, the “Log Ki” value in data set [2] is -5.63.

On to `N#Cc1ccc(S(N)(=O)=O)cc1`, for which, in data set [1], the “Log 1/C” value was determined as 1. Moreover, the “Log Ki” value in data set [2] was -5.95.

Take `NS(=O)(=O)c1ccc(Cl)cc1` [P-CHLOROBENZENESULFONAMIDE]: in data set [2], the “Log Ki” value is -5.72.

Turning to `NS(=O)(=O)c1ccc(Br)cc1`, the “Log 1/C” value in data set [1] stood at 0.26. The “Log Ki” value in data set [2] was -5.92.

Take `NS(=O)(=O)c1ccccc1Cl`: in data set [1], the “Log 1/C” value is -0.3. Moreover, the “Log Ki” value in data set [2] is reported as -5.52.

Take `COc1ccc(S(N)(=O)=O)cc1`: the “Log Ki” value in data set [2] was -5.34.
